Measurements reported in US20210369650A1, “TREATMENT OF INFLAMMATORY CONDITIONS” (UNION therapeutics A/S, priority 2018, published 2021).

Tests used:
[1] = system: lesional skin of patients with moderate atopic dermatitis; experiment: Gene expression by qRT-PCR (TLDA) in lesional skin biopsies, Phase II atopic dermatitis study; type: in vivo, human; details: qRT-PCR fold change, lesional skin biopsy, Day 22, niclosamide 2% once daily
From the text: (§1) 31 patients with moderate atopic dermatitis (Investigator Global Assessment [IGA] of 3) were included in this double-blind, randomized, intraindividual vehicle-controlled, Phase 2 study to evaluate the efficacy and safety of topically applied niclosamide. Patients had at least 2 areas of at least 3×3-cm of atopic dermatitis with a Total Sign Score (TSS) of […] discontinued the study before Day 22.
(§2) Patients received topical applications of the niclosamide 2% composition and vehicle once daily for 3 weeks, followed by a 1-week follow up period. Topical niclosamide 2% and vehicle was applied on two separate target lesions of atopic dermatitis (lesions of at least 3×3-cm that are at least 2 cm apart, excluding the face, scalp, genitals, hands, and feet). The application areas (5×5-cm) were randomized (1:1) to once daily application of niclosamide 2% or vehicle at 5 mg/cm^2/day without occlusion 6 days per week. Patients came to the study site for all study product application for a total of 3 weeks.
(§3) Three skin biopsies were collected in all patients (one from lesional skin at baseline, pre-dosing at Day 1, and two from lesional skin at Day 22 (one where topical niclosamide 2% had been applied and one where the vehicle had been applied). The lesional skin biopsies were analysed for skin thickness and inflammation biomarkers.
(§4) Skin barrier and inflammation biomarker levels were determined from lesional skin biopsies from application areas.
(§5) The skin biopsy samples were analysed by immunohistochemistry (IHC), and by gene expression studies by RT-PCR using TaqMan Low Density Array (TLDA), and by microarray using Affymetrix U133A Plus 2. The immunohistochemistry (IHC) was used to analyse cell biomarkers. The methodologies as disclosed by Guttman-Yassky et al, “Major differences in inflammatory dendritic cells and their products distinguish atopic dermatitis from psoriasis”, The Journal of Allergy and Clinical Immunology, vol. 119, issue 5, pages 1210-1217, 2007, were followed except for that U133A Plus 2-set Gene Chip probe arrays was used instead of U95A-set Gene Chip probe arrays.
Expression values (threshold cycle [Ct]) were normalized to Rplp0 by negatively transforming the Ct values to −dCt (IL17A was normalized to hARP, as analysed by qPCR). The undetected −dCt values were estimated for each gene as the 20% of the minimum across all samples. qRT-PCR expression data were modelled using a mixed effect model with Visit and Treatment Area as a fixed effect and a random intercept for each patient. This formulation intrinsically models the within patient correlation structure as in the case of a paired t-test. This approach introduces less bias than restricting the analysis for those patients who completed the study. Contrasts were used to estimate the fold changes with treatment within each treatment group and conduct hypothesis testing.

[2] = system: lesional skin of patients with moderate atopic dermatitis; experiment: Gene expression by microarray (Affymetrix U133A Plus 2) in lesional skin biopsies, Phase II atopic dermatitis study; type: in vivo, human; details: microarray fold change
From the text: as §1, §2, §3, §4, §5
Experimental design: The hybridization strategy was in concordance with experimental design principles, by for example keeping all samples from the same patient in the same date, and always include samples from every treatment arm/group.
Quality Control and Pre-processing: Quality control of microarray chips were carried out using standard QC metrics and R package microarray Quality Control. Expression measures were obtained using GCRMA algorithm (Wu & Irizarry, 2004). Several visual and modelling techniques were used to elucidate if batch effect existed. Principal Component analysis plots were used to detect if any evident batch effect existed. If such batch effects were found, they were adjusted using Combat, an empirical Bayes method for adjusting data for batch effects that is robust to outliers in small sample sizes (Johnson, Li, & Rabinovic, 2007). The implementation of Combat by package sva was used.
Probe-sets with at least 5% samples with expression larger than 3 (in log 2-scale) were kept for further analysis. Expression values were modelled using mixed-effect models with fixed factors Visit and Treatment Area and a random effect for each patient. Fold changes for the comparisons of interest were estimated and hypothesis testing was conducted on such comparisons using contrasts under the general framework for linear models in limma package. The inter-replicate correlation was computed by Duplicate Correlation function and the linear model was estimated by ImFit. P-values from the moderated (paired) t-test were adjusted for multiple hypotheses using the Benjamini-Hochberg procedure, which controls for FDR.

[3] = system: lesional skin of patients with moderate atopic dermatitis; experiment: Immunohistochemistry (IHC) of cell markers in lesional skin biopsies, Phase II atopic dermatitis study; type: in vivo, human; details: lesional skin biopsy, Day 22, 2% niclosamide
From the text: as §1, §2, §3, §5

[4] = system: lesional skin of patients with moderate atopic dermatitis; experiment: Skin thickness in lesional skin biopsies at Day 22; type: in vivo, human; details: lesional skin biopsy, Day 22, 2% niclosamide
Method: as §2, with “weeks. Three skin biopsies were collected in all patients (one from lesional skin at baseline, pre-dosing at Day 1, and two from lesional skin at Day 22 (one where topical niclosamide 2% had been applied and one where the vehicle had been applied). The lesional skin biopsies were analysed for skin thickness and inflammation biomarkers.” for “weeks.”

dendritic cell = details: in-vitro, Wu et al.; cited from earlier work
[5] = system: lamina propria T cells (expressing CD3); details: WO 2017/040864; cited from earlier work
lesional AD skin = details: Brunner et al; cited from earlier work
[6] = lesional skin biopsy, Day 22, niclosamide 2% once daily
[7] = niclosamide relative to vehicle, Day 22, 2% niclosamide, p<0.05

Molecule: O=C(Nc1ccc([N+](=O)[O-])cc1Cl)c1cc(Cl)ccc1O [Niclosamide, niclosamide]
- CXCL1 Niclosamide vs. Predose [1]: −2.80
- CXCL10 Niclosamide vs. Vehicle [1]: −1.10
- FLG Niclosamide vs. Predose [1]: 1.50
- FLG Niclosamide vs. Vehicle [1]: 1.30
- IL2 Niclosamide vs. Predose [1]: −1.20
- IL17A Niclosamide vs. Vehicle [1]: −1.40
- KRT16 Niclosamide vs. Vehicle [1]: −1.60
- MMP12 Niclosamide vs. Vehicle [1]: −1.90
- S100A7 Niclosamide vs. Vehicle [1]: −2.20
- FLG Niclosamide vs. Predose ([1]; listed as niclosamide): increased significantly
- LOR Niclosamide vs. Predose ([1]; listed as niclosamide): increased significantly
- ACOX2 Niclosamide vs Predose [2, 6]: 1.40
- ACOX2 Vehicle vs. Niclosamide [2, 6]: −1.40
- CCL13 Niclosamide vs Predose [2, 6]: −1.40
- CCL18 Niclosamide vs Predose [2, 6]: −1.70
- CCL20 Vehicle vs. Niclosamide [2, 6]: 2.00
- CCR1 Niclosamide vs Predose [2, 6]: −1.90
- CCR5 Niclosamide vs Predose [2, 6]: −1.40
- CD86 Niclosamide vs Predose [2, 6]: −1.60
- CXCL1 Vehicle vs. Niclosamide [2, 6]: 2.10
- FA2H Niclosamide vs Predose [2, 6]: 1.50
- IFNGR2 Vehicle vs. Niclosamide [2, 6]: 1.10
- IL4R Niclosamide vs Predose [2, 6]: −1.80
- KRT79 Vehicle vs. Niclosamide [2, 6]: −2.00
- S100A12 Vehicle vs. Niclosamide [2, 6]: 2.30
- SPTLC3 Vehicle vs. Niclosamide [2, 6]: −1.30
- CXCL1 downregulated compared to vehicle [2, 7]: −2.10
- S100A12 downregulated compared to vehicle [2, 7]: −2.30
- Langerhans cells: langerin/CD207, compared to baseline [3]: Significant reductions
- dendritic cells: CD11c, compared to baseline [3]: Significant reductions
- dendritic cells: FceR1 in epidermis, compared to baseline [3]: Significant reductions
- total amount of T cells (CD3) in dermis and epidermis, compared to baseline [3]: No significant change
- skin thickness compared to baseline and compared to vehicle [4]: No differences
- lipopolysaccharide (LPS)-induced dendritic cell maturation and cytokine costimulatory molecule and MHC molecule expression (dendritic cell): inhibitory action
- effect on lamina propria T cells (expressing CD3) isolated from IBD patients [5]: kills

Molecule: dupilumab: inhibits interleukin-4 and interleukin-13 signalling by binding to interleukin-4 receptor a; FDA approved for atopic dermatitis
- expression of Th2-associated molecules, such as CCL17, CCL18, and CCL26 (lesional AD skin): reduction
